How the values were obtained:
M006X (Human glioma) = experiment: Cytotoxicity testing (MTS) on M006X; format: cell-based
Description: (§1) Cell lines used were A549 (Human lung carcinoma), HeLa (Human cervical carcinoma), MCF-7 (Human mammary gland adenocarcinoma), CEM (Human T-lymphoblastoid from ALL (Acute lymphoblastic leukemia)), M010B (Human glioma), M006X (Human glioma) and Jurkat (Human T-cell leukemia).
(§2) A series of dilutions were prepared and a wavelength scan of the diluted solution was used to determine the wavelength of maximum absorbance for each compound. Five standardized drug concentrations were scanned at this pre-determined wavelength to obtain an estimate of the compound's extinction coefficient.
(§3) A primary MTS assay was used to test the optimal number of cells for cytotoxicity assays. Cells were trypsinized, counted and introduced into seven lanes of a 96-well plate at different cell numbers (eight replicates per lane). Optimal cell numbers were determined after 72 and 96 hours of growth and were used in subsequent cytotoxicity assays. […] Cell viability was determined using the Cell Titer 96 AQueous One Solution Cell Proliferation Assay (Promega, U.S.A.).
(§4) Fits were performed using a dose-response model ideal for data showing an initial response plateau, a transition region, and a final response plateau.
(§5) [formula] […] Itop is the response obtained at very low/no drug concentration. The data and all parameters were normalized to Itop−Ibot, a measure of the maximum effect of the drug.

[1] = tested on: A549 (Human lung carcinoma); experiment: Cytotoxicity testing (MTS) on A549; format: cell-based
Description: as §1, §2, §3, §4, §5

M010B (Human glioma) = experiment: Cytotoxicity testing (MTS) on M010B; format: cell-based
Description: as §1, §2, §3, §4, §5

[2] = tested on: CEM (Human T-lymphoblastoid from ALL); experiment: Cytotoxicity testing (MTS) on CEM; format: cell-based
Description: as §1, §2, §3, §4, §5

[3] = tested on: HeLa (Human cervical carcinoma); experiment: Cytotoxicity testing (MTS) on HeLa; format: cell-based
Description: as §1, §2, §3, §4, §5

[4] = tested on: A549, HeLa, MCF-7 and CEM cell lines; experiment: Cytotoxicity, mean over A549, HeLa, MCF-7 and CEM cell lines; details: for IC50 [log10 M] (mean logIC50): mean over A549, HeLa, MCF-7 and CEM cell lines
Source text: as §1, §3, §5
Cytotoxicity screening was performed on a number of cell lines based on the cancer of origin and differing morphologies.

[5] = tested on: MCF-7 (Human mammary gland adenocarcinoma); experiment: Cytotoxicity testing (MTS) on MCF-7; format: cell-based
Description: as §1, §2, §3, §4, §5

CEM cells = experiment: Viability of 3-D CEM cell cultures in Hollow Fiber Bioreactor (HFB), trypan blue; format: cell-based, Human; details: samples analysed by HPLC
Description: CEM cells (American Type Culture Collection, Manassas, Va.) were maintained in tissue culture flasks and cultured as monolayer in 20 mL of RPMI media containing 10% Fetal Bovine Serum (FBS). When the number of cells in the culture flask reached 5-6×10^6 cells/mL the culture was harvested and then inoculated into six Hollow Fiber Bioreactors (HFB, FiberCells System, Frederick, Md.) and were continuously cultured in 37° C. and 5% CO2. HFB consists of a single, hydrophylic and polysulfone fiber with 0.1 μm diameter pores. The media circulating within the HFB cartridge and polysulphone tubing, at flow rate of 14 mL/min, brings oxygen and nutrients to cells and removes CO2 and other waste. Collagen solution was used to create an extra cellular matrix between the cells and the fiber. The polysulphone fiber was coated with protein by flushing with 10 mL of coating solution containing 1 mg collagen per 1 mL Phosphate Buffered Saline (PBS). The pH was maintained in the extra-capillary space throughout the duration of experiments between 6.8 and 7.0. Due to the perfusion the HFB absorbed sufficient oxygen from the reservoir with fresh media to keep cells alive. The perfusion medium was changed weekly when the glucose level reached 2 g/L measured with a glucometer.
Viability was assessed using trypan blue (K. Takahashi, G. Loo, Biochem. Pharm. 67 (2004) 315-324). Briefly, CEM cells were harvested from HFB, seeded in 6 well microplates and exposed to 0.4% (w/v) trypan blue dye solution. Cell number was determined manually with a hemacytometer chamber (Hausser Scientific, Horsham, Pa.).
Approximately 4×10^4 CEM cells/ml were treated on culture plates and placed for the 72 h incubation with (2-16) and (28-38) derivatives. All compounds were used for in vitro experiments and then the derivatives were selected for HFB studies to treat 10^9 CEM cells/mL in the 3-D cultures. The cells were treated 4 weeks after the cells' inoculation in the HFB. After 72 h, the growth was inhibited over 50% for 20 nM and higher concentrations in cells treated with (6), (13), (28) and (35).
CEM cells, American Type Culture Collection (Manassas, Va.), were maintained in tissue culture flasks and cultured as monolayer in 20 ml of RPMI media containing 10% Fetal Bovine Serum (FBS) and divided from 5×10^5 cells/mL to 2.5×10^4 cells/mL two times per week. When the number of the cells in the culture flask reached 5-6×10^6 cells/ml the culture was harvested and then inoculated into six Hollow Fiber Bioreactors (HFB, FiberCells System Inc., Frederick, Md.) and then continuously cultured in 37° C. and 5% CO2. The HFB consists of a single, hydrophylic and polysulfone fiber with 0.1 μm diameter pores. The media circulate within the HFB cartridge and polysulphone tubing, at flow rate of 14 mL/min, bringing oxygen and nutrients to cells and removing CO2 and other waste. Collagen solution was used to create an extracellular matrix between cells and fiber. The polysulfone fiber was coated with protein by flushing with 10 mL of coating solution containing 1 mg collagen per 1 mL Phosphate Buffered Saline (PBS). In this manner, CEM cells growing originally in suspension build up a 3-D solid tumor. During 4 weeks of culturing, the media were replaced each week.
The number of cells was determined using Trypan blue (Sigma-Aldrich, Oakville, ON) exclusion method (K. Takahashi, G. Loo, Biochem. Pharmacol. 67 (2004) 315-324). Briefly, CEM cells were harvested from HFB, seeded in 6 well microplates and exposed to 0.4% (w/v) trypan blue dye solution. Cell number was determined manually with a hemacytometer chamber (Hausser Scientific, Horsham, Pa.).

## N-[(7S)-2,3,10-trimethoxy-1-((methyl)cyclohexane)-9-oxo-5,6,7,9-tetrahydrobenzo[α]heptalen-7-yl]acetamide [Compound 16]
M006X (Human glioma)
  logIC50: −5.44 ± 0.12 log10 M
[1]
  logIC50: −4.95 ± 0.07 log10 M
M010B (Human glioma)
  logIC50: −5.20 ± 0.08 log10 M
[2]
  logIC50: −5.53 ± 0.10 log10 M
[3]
  logIC50: −5.33 ± 0.11 log10 M
[4]
  IC50 [log10 M] (mean logIC50): −5.26 ± 0.09 log10 M
[5]
  logIC50: −5.22 ± 0.08 log10 M

## COc1cc2c(c(OCc3cccc(Cl)c3)c1OC)-c1ccc(OC)c(=O)cc1[C@@H](NC(C)=O)CC2 [Compound 12, N-[(7S)-2,3,10-trimethoxy-9-oxo-1-((phenyl(3-chloro))methoxy)-5,6,7,9-tetrahydrobenzo[α]heptalen-7-yl]acetamide]
M006X (Human glioma)
  Fraction of cells that survive at the highest drug concentrations (Ibot): 0.051 ± 0.027
  logIC50: −6.47 ± 0.12 log10 M
[1]
  Fraction of cells that survive at the highest drug concentrations (Ibot): 0.245 ± 0.024
  logIC50: −6.00 ± 0.04 log10 M
M010B (Human glioma)
  Fraction of cells that survive at the highest drug concentrations (Ibot): 0.328 ± 0.022
  logIC50: −6.39 ± 0.11 log10 M
[2]
  Fraction of cells that survive at the highest drug concentrations (Ibot): −0.015 ± 0.021
  logIC50: −6.46 ± 0.09 log10 M
[3]
  Fraction of cells that survive at the highest drug concentrations (Ibot): 0.040 ± 0.038
  logIC50: −6.43 ± 0.15 log10 M
[4]
  IC50 [log10 M] (mean logIC50): −6.30 ± 0.10 log10 M
[5]
  Fraction of cells that survive at the highest drug concentrations (Ibot): 0.390 ± 0.025
  logIC50: −6.30 ± 0.12 log10 M

## COc1cc2c(c(OCc3ccc(Cl)cc3)c1OC)-c1ccc(OC)c(=O)cc1[C@@H](NC(C)=O)CC2 [Compound 15]
M006X (Human glioma)
  Fraction of cells that survive at the highest drug concentrations (Ibot): 0.058 ± 0.030
  logIC50: −6.45 ± 0.13 log10 M
[1]
  Fraction of cells that survive at the highest drug concentrations (Ibot): 0.288 ± 0.020
  logIC50: −6.23 ± 0.08 log10 M
M010B (Human glioma)
  Fraction of cells that survive at the highest drug concentrations (Ibot): 0.382 ± 0.028
  logIC50: −6.38 ± 0.14 log10 M
[2]
  Fraction of cells that survive at the highest drug concentrations (Ibot): −0.016 ± 0.032
  logIC50: −6.57 ± 0.11 log10 M
[3]
  Fraction of cells that survive at the highest drug concentrations (Ibot): 0.039 ± 0.034
  logIC50: −6.22 ± 0.09 log10 M
[4]
  IC50 [log10 M] (mean logIC50): −6.34 ± 0.10 log10 M
[5]
  Fraction of cells that survive at the highest drug concentrations (Ibot): 0.381 ± 0.024
  logIC50: −6.35 ± 0.12 log10 M

## N-[(7S)-2,3,10-trimethoxy-9-oxo-1-(((3-methoxy)propan)oxy)(3-methoxy))-5,6,7,9-tetrahydrobenzo[α]heptalen-7-yl]acetamide [Compound 11]
M006X (Human glioma)
  logIC50: −7.40 ± 0.09 log10 M
[1]
  logIC50: −6.47 ± 0.12 log10 M
M010B (Human glioma)
  logIC50: −6.74 ± 0.08 log10 M
[2]
  logIC50: −7.45 ± 0.09 log10 M
[3]
  logIC50: −7.23 ± 0.09 log10 M
[4]
  IC50 [log10 M] (mean logIC50): −7.05 ± 0.09 log10 M
[5]
  logIC50: −7.05 ± 0.04 log10 M

## CCOc1c(OC)c(OC)cc2c1-c1ccc(OC)c(=O)cc1[C@@H](NC(C)=O)CC2 [Compound 6, N-[(7S)-1-(ethoxy)-2,3,10-trimethoxy-9-oxo-5,6,7,9-tetrahydrobenzo[α]heptalen-7-yl]acetamide]
M006X (Human glioma)
  Fraction of cells that survive at the highest drug concentrations (Ibot): 0.039 ± 0.011
  logIC50: −8.41 ± 0.08 log10 M
[1]
  Fraction of cells that survive at the highest drug concentrations (Ibot): 0.249 ± 0.030
  logIC50: −7.83 ± 0.10 log10 M
M010B (Human glioma)
  Fraction of cells that survive at the highest drug concentrations (Ibot): 0.108 ± 0.013
  logIC50: −7.94 ± 0.04 log10 M
[2]
  Fraction of cells that survive at the highest drug concentrations (Ibot): −0.062 ± 0.026
  logIC50: −8.64 ± 0.08 log10 M
[3]
  Fraction of cells that survive at the highest drug concentrations (Ibot): 0.089 ± 0.026
  logIC50: −7.89 ± 0.06 log10 M
[4]; average values of Table 3
  average IC50 values compared with colchicine: stronger than colchicine
[4]
  IC50 [log10 M] (mean logIC50): −7.95 ± 0.09 log10 M
CEM cells
  viability of cell cultures: 50%±4
[5]
  Fraction of cells that survive at the highest drug concentrations (Ibot): 0.605 ± 0.015
  logIC50: −7.42 ± 0.13 log10 M

## COc1cc2c(c(OCc3ccccc3)c1OC)-c1ccc(OC)c(=O)cc1[C@@H](NC(C)=O)CC2 [Compound 10, N-[(7S)-2,3,10-trimethoxy-9-oxo-1-((phenyl)methoxy)-5,6,7,9-tetrahydrobenzo [α]heptalen-7-yl]acetamide]
M006X (Human glioma)
  Fraction of cells that survive at the highest drug concentrations (Ibot): 0.088 ± 0.022
  logIC50: −6.42 ± 0.09 log10 M
[1]
  Fraction of cells that survive at the highest drug concentrations (Ibot): 0.256 ± 0.032
  logIC50: −5.77 ± 0.10 log10 M
M010B (Human glioma)
  Fraction of cells that survive at the highest drug concentrations (Ibot): 0.250 ± 0.031
  logIC50: −5.66 ± 0.10 log10 M
[2]
  Fraction of cells that survive at the highest drug concentrations (Ibot): 0.012 ± 0.022
  logIC50: −6.45 ± 0.09 log10 M
[3]
  Fraction of cells that survive at the highest drug concentrations (Ibot): 0.080 ± 0.026
  logIC50: −6.17 ± 0.07 log10 M
[4]
  IC50 [log10 M] (mean logIC50): −6.16 ± 0.08 log10 M
[5]
  Fraction of cells that survive at the highest drug concentrations (Ibot): 0.387 ± 0.016
  logIC50: −6.27 ± 0.08 log10 M

From patent US9458101B2 (priority 2009, dated 2016)
